Source: patent US8175860B2, “Method of inhibiting the growth of Helicobacter pylori” (priority 2009, dated 2012)
Several values for one entry are separate records, joined by “and”; a condition that tells them apart may be missing. Equal values may be shown once. Read-outs that look alike come from different tables or passages of the source.

Legend:
Format in all cases: biochemical
[1] = biological target: HpSK (H. pylori shikimate kinase) (Helicobacter pylori, UniProt P56073); experiment: Shikimate kinase inhibitor activity assay (pyruvate kinase/lactate dehydrogenase coupled), HpSK; conditions: for inhibition mode with respect to shikimate (SKM): ATP fixed at 2.5 mM, shikimate varied; for inhibition mode with respect to ATP: shikimate fixed at 1.6 mM, ATP varied; for inhibitory effect against shikimate kinase (in words): preliminary screening at 50 μM
Method: The shikimate kinase activity was determined by coupling the release of ADP from the shikimate kinase-catalyzed reaction to the oxidation of NADH using pyruvate kinase (EC 2.7.1.40) and lactate dehydrogenase (EC 1.1.1.27) as coupling enzymes. Shikimate-dependent oxidation of NADH was monitored by the decrease in A340 (ε=6,200 M^−1 cm^−1). The assay was carried out at 25° C. in a mixture containing 100 mM Tris/HCl/KOH buffer, pH 7.5, 50 mM KCl, 5 mM MgCl2, 1.6 mM shikimic acid, 2.5 mM ATP, 1 mM phosphoenolpyruvate, 0.1 mM NADH, 2.5 units of pyruvate kinase/ml, and 2.7 units of lactate dehydrogenase/ml. All assays were conducted in a 96-well microplate spectrophotometer (FLUOstar OPTIMA, BMG LABTECH). Kinetic parameters were obtained using nonlinear regression fitting to the Michaelis-Menten equation. The apparent Km values for each substrate were determined as follows: for ATP the shikimate concentration ([shikimate]) was maintained at 1.6 mM and the [ATP] varied in the range from 0.001 mM to 2.5 mM; for shikimate the [ATP] was maintained at 2.5 mM and the [shikimate] varied in the range from 0.005 to 1.6 mM. The kinetic data were fit to the appropriate equations using the program GraphPad Prism 4 (Software Inc., USA). The kinetic data for determining the Km values were fit to
using the program GraphPad Prism 4 where v was the initial velocity, Vmax was the maximum velocity, Km was the Michaelis constant and [S] was the substrate (shikimate or ATP) concentration. The IC50 value for HpSK inhibition by inhibitors was determined by fitting data to
where v was the initial velocity, Vmax was the maximum velocity, Vmin was the minimum velocity, [I] was the concentration of compounds and n was the Hill slope.
Using GEMDOCK virtual docking and pharmarcophore model, several compounds were selected to assay inhibitor activity for verifying the inhibiting effect on HpSK and MtSK enzyme. Based on the procedure of enzyme activity assay, the initial velocities of the enzyme activity were determined in the presence of compounds (50 μM) dissolved in dimethylsulfoxide (DMSO). The final DMSO concentration in all assay mixtures was 5% (v/v). The assay buffer contained 100 mM Tris/HCl/KOH (pH 7.5), 1.6 mM shikimic acid, 2.5 mM ATP. The reaction was initiated by the addition of the diluted HpSK and MtSK enzyme (85 nM). After the preliminary screening, several compounds were identified to inhibit HpSK and MtSK enzyme activity. The initial velocities of the enzyme activity were determined in the presence of various concentrations of these compounds to investigate the dose-dependent inhibition effects. IC50 values of these compounds were obtained by fitting the data to a sigmoid dose-response equation of the GraphPad Prism 4. Afterwards, inhibitor modality was determined by measuring the effects of inhibitor concentrations on the enzymatic activity as a function of substrate concentration. In the inhibition experiment where the ATP concentration was fixed at 2.5 mM, shikimate was a varied substrate (0.06, 0.12, 0.24, 0.48, and 0.96 mM) when the concentration of inhibitor was varied from 0 to 50 μM. In parallel, in the inhibition experiment where the shikimate concentration was fixed at 1.6 mM, ATP was a varied substrate (0.06, 0.12, 0.24, 0.48, and 0.96 mM) when the concentration of inhibitor was varied from 0 to 50 μM.

[2] = biological target: MtSK (M. tuberculosis shikimate kinase) (Mycobacterium tuberculosis, UniProt P9WPY3); experiment: Shikimate kinase inhibitor activity assay (pyruvate kinase/lactate dehydrogenase coupled), MtSK; conditions: for inhibition mode with respect to shikimate (SKM): ATP fixed at 2.5 mM, shikimate varied; for inhibition mode with respect to ATP: shikimate fixed at 1.6 mM, ATP varied; for inhibitory effect against shikimate kinase (in words): preliminary screening at 50 μM
[3] = biological target: T1, HpDHQS (dehydroquinate synthase of H. pylori) (Helicobacter pylori, UniProt P56081, I144T); experiment: HpDHQS inhibition assay (thiobarbiturate assay of residual DAHP); conditions: 1 μM HpDHQS, 37° C., pH 7.0
T1 construct: His tag (inferred from the pQE30 vector and nickel-ion purification); made in house; host or cells: E. coli JM109
T1 sequence (P56081 1-343 I144T): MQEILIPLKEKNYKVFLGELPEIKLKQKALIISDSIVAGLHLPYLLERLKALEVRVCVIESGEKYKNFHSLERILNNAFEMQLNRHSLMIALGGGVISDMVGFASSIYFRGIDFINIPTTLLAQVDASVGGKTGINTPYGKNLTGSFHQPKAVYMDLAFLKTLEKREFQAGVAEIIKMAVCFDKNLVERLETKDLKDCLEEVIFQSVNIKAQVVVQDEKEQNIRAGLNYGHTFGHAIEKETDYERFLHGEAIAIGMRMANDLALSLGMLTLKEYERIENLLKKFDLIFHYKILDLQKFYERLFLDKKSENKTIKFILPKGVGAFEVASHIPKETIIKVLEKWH
Method: The level of DAHP was determined by a thiobarbiturate assay method. All assays were conducted at 37° C. in a 200-μl solution containing 20 mM Bis-Tris propane buffer (pH 7.0), 0.5 mM DAHP, 0.02 mM cobalt chloride, 0.02 mM NAD^+ and 1 μM HpDHQS. The residual DAHP was oxidized by per-iodate to produce formylpyruvate, which then reacted with thiobarbiturate to yield a pink adduct, and this chromophore was monitored at A549 after extraction into cyclohexanone.
Compounds were prepared to 100 mM in dimethylsulfoxide (DMSO) solutions. A 5% DMSO control was included for each set of measurements. About 1 μM HpDHQS was added to the mixture containing the compound to be tested with the standard assay mixture. The test compounds were also evaluated whether they interfered the thiobarbiturate assay system in the absence of HpDHQS. The initial velocities were plotted against the inhibitor concentrations to obtain the IC50 by using the following equation A[I]=A[0]×{1−([I]/[I]+IC50)]} wherein A[I] was the enzyme activity with inhibitor concentration [I], and A[0] was the enzyme activity without the inhibitor.

[4] = with respect to ATP, read-out: αKi, ATP
[5] = with respect to shikimate, read-out: αKi, SKM
[6] = MtSK, with respect to ATP, read-out: αKi, ATP
[7] = MtSK, with respect to shikimate, read-out: αKi, SKM

Chain of HpSK (H. pylori shikimate kinase) (P56073 whole entry): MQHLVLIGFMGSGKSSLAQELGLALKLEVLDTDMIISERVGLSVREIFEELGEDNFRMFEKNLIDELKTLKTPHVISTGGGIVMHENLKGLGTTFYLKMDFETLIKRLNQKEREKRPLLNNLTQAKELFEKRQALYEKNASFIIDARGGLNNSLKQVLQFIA
Chain of MtSK (M. tuberculosis shikimate kinase) (P9WPY3 whole entry): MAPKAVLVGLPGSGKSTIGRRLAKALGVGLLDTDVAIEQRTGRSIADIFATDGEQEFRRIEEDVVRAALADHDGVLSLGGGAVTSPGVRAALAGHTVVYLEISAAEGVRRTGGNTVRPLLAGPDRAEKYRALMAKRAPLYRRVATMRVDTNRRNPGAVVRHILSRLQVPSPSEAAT

Molecule | IC50 [1] | IC50 ([2]; MtSK) [nM] | inhibition mode with respect to shikimate (SKM) [1] | inhibition mode with respect to ATP [1] | Ki [1, 4] [nM] | Ki [1, 5] [nM] | inhibition mode with respect to shikimate (SKM) ([2]; MtSK) | inhibition mode with respect to ATP ([2]; MtSK) | Ki [2, 6] [nM] | Ki [2, 7] [nM] | also measured
O=C1c2cccc3cc([N+](=O)[O-])cc(c23)C(=O)N1c1ccc(S(=O)(=O)Nc2ccc(C(F)(F)F)cc2)cc1 [Compound 1, 4-(5-nitro-1,3-dioxo-1H-benzo[de]isoquinolin-2(3H)-yl)-N-(4-(trifluoromethyl)phenyl)benzenesulfonamide] | 79300 nM | > 50000 | – | – | – | – | – | – | – | – | –
O=C(Nc1ccc2c(O)cc(S(=O)(=O)O)cc2c1)Nc1ccc2c(O)cc(S(=O)(=O)O)cc2c1 [Compound 5, 7,7′-carbonylbis(azanediyl)bis(4-hydroxynaphthalene-2-sulfonate)] | ≤ 10000 nM and 7770 nM | 2760 | Noncompetitive | Competitive | 1740 | 12800 | Noncompetitive | Competitive | 350 | 2670 | inhibition mode with respect to shikimate (SKM) ([1]; listed as NSC45174): noncompetitive; inhibition mode with respect to shikimate (SKM) ([2]; MtSK, listed as NSC45174): noncompetitive
CSc1c(C#N)c(N)nc(SCC(=O)c2cccc([N+](=O)[O-])c2)c1C#N [RH00573, 2-amino-4-methylsulfanyl-6-[2-(3-nitrophenyl)-2-oxoethyl]sulfanylpyridine-3,5-dicarbonitrile] | – | – | – | – | – | – | – | – | – | – | IC50 [3]: 84400 nM
O=C(NNC(=O)C1c2ccccc2Oc2ccccc21)c1cccc(F)c1 [Compound 3, N′-(3-fluorobenzoyl)-9H-xanthene-9-carbohydrazide] | 40200 nM | > 50000 | – | – | – | – | – | – | – | – | –
N=C(NO)c1ccc(Oc2cc(Cl)cc(Cl)c2)c([N+](=O)[O-])c1 [Compound 4, (Z)-4-(3,5-dichlorophenoxy)-N′-hydroxy-3-nitrobenzimidamide] | 89800 nM | > 50000 | – | – | – | – | – | – | – | – | –
CC1CCc2c(sc(NC(=O)CSc3nc4ccccc4s3)c2C#N)C1 (centres unmarked) [HTS11955, 2-(1,3-benzothiazol-2-ylsulfanyl)-N-(3-cyano-6-methyl-4,5,6,7-tetrahydro-1-benzothiophen-2-yl)acetamide] | – | – | – | – | – | – | – | – | – | – | IC50 [3]: 61000 nM
5-((E)-(4-((E)-(2-benzyl-8-hydroxy-6-sulfonatonaphthalen-1-yl)diazenyl)phenyl)diazenyl)-2-hydroxybenzoate [Compound 7] | 6100 nM | 2770 | Competitive | Competitive | 1970 | 2420 | Competitive | Competitive | 730 | 1040 | –
O=C1Nc2ccc(I)cc2/C1=C/c1cc(Br)c(O)c(Br)c1 [Compound 10, (Z)-3-(3,5-dibromo-4-hydroxybenzylidene)-5-iodoindolin-2-one, reference compound] | 31400 nM | – | – | – | – | – | – | – | – | – | inhibitory effect against shikimate kinase (in words) [1]: showed inhibitory results; IC50 [2]: 29600 nM; inhibitory effect against shikimate kinase (in words) ([2]; MtSK): showed inhibitory results
Cc1cc(/N=N/c2ccc(/N=N/c3ccc(/N=N/c4ccc(O)c(C(=O)O)c4)cc3)c(S(=O)(=O)O)c2C)c(N)cc1N [Compound 6, 5-((E)-(4-((E)-(4-((E)-(2,4-diamino-5-methylphenyl)diazenyl)-3-methyl-2-sulfonatophenyl)diazenyl)phenyl)diazenyl)-2-hydroxybenzoate] | ≤ 10000 nM | ≤ 10000 | – | – | – | – | – | – | – | – | –
Nc1ccc2c(O)c(/N=N/c3ccc4c(O)cc(S(=O)(=O)O)cc4c3)c(S(=O)(=O)O)cc2c1 [Compound 8, (E)-7-amino-4-hydroxy-3-((5-hydroxy-7-sulfonatonaphthalen-2-yl)diazenyl)naphthalene-2-sulfonate] | 4910 nM | 1550 | Competitive | Competitive | 1850 | 1820 | Competitive | Competitive | 240 | 610 | inhibition mode with respect to shikimate (SKM) ([1]; listed as NSC136535): competitive; inhibition mode with respect to shikimate (SKM) ([2]; MtSK, listed as NSC136535): competitive
O=C(O)c1cc(/N=N/c2ccc(/N=N/c3c(Cc4ccccc4)ccc4cc(S(=O)(=O)O)cc(O)c34)cc2)ccc1O [Compound 7, 5-((E)-(4-((E)-(2-benzyl-8-hydroxy-6-sulfonatonaphthalen-1-yl)diazenyl)phenyl)diazenyl)-2-hydroxybenzoate] | ≤ 10000 nM | ≤ 10000 | – | – | – | – | – | – | – | – | –
5-((E)-(4-((E)-(4-((E)-(2,4-diamino-5-methylphenyl)diazenyl)-3-methyl-2-sulfonatophenyl)diazenyl)phenyl)diazenyl)-2-hydroxybenzoate [Compound 6] | 4780 nM | 1500 | Competitive | Competitive | 1050 | 1730 | Competitive | Competitive | 320 | 660 | –
N#C/C(=C/c1ccc(O)c(O)c1)C(=O)c1ccc(O)c(O)c1 [Compound 9, (Z)-2-(3,4-dihydroxybenzoyl)-3-(3,4-dihydroxyphenyl)acrylonitrile, reference compound] | 2300 nM | – | Noncompetitive | Competitive | 3080 | 5350 | Noncompetitive | Competitive | – | – | inhibition mode with respect to shikimate (SKM) ([1]; listed as AG538): noncompetitive; inhibitory effect against shikimate kinase (in words) [1]: showed inhibitory results; inhibition mode with respect to shikimate (SKM) ([2]; MtSK, listed as AG538): noncompetitive; inhibitory effect against shikimate kinase (in words) ([2]; MtSK): showed inhibitory results
